{"source": "PubChem BioAssay (NCI)", "experiment_in_all_cases": "NCI tumour cell line growth inhibition, 48 h", "key": {"SK-OV-3 ovarian": {"tested_on": "SK-OV-3 ovarian"}, "HL-60(TB) leukemia": {"tested_on": "HL-60(TB) leukemia"}, "MDA-MB-435": {"tested_on": "MDA-MB-435"}, "CCRF-CEM leukemia": {"tested_on": "CCRF-CEM leukemia"}, "SNB-75 CNS": {"tested_on": "SNB-75 CNS"}, "SR leukemia": {"tested_on": "SR leukemia"}, "HOP-62 NSCLC": {"tested_on": "HOP-62 NSCLC"}, "NCI-H460 lung": {"tested_on": "NCI-H460 lung"}, "MCF7 breast": {"tested_on": "MCF7 breast"}, "SK-MEL-5 melanoma": {"tested_on": "SK-MEL-5 melanoma"}, "COLO 205 colon": {"tested_on": "COLO 205 colon"}, "OVCAR-5 ovarian": {"tested_on": "OVCAR-5 ovarian"}, "HCC-2998 colon": {"tested_on": "HCC-2998 colon"}, "UO-31 renal": {"tested_on": "UO-31 renal"}, "UACC-257 melanoma": {"tested_on": "UACC-257 melanoma"}, "SW-620 colon": {"tested_on": "SW-620 colon"}, "OVCAR-4 ovarian": {"tested_on": "OVCAR-4 ovarian"}, "KM12 colon": {"tested_on": "KM12 colon"}, "NCI/ADR-RES ovarian": {"tested_on": "NCI/ADR-RES ovarian"}, "RPMI-8226 leukemia": {"tested_on": "RPMI-8226 leukemia"}, "TK-10 renal": {"tested_on": "TK-10 renal"}, "K-562 leukemia": {"tested_on": "K-562 leukemia"}, "LOX IMVI melanoma": {"tested_on": "LOX IMVI melanoma"}, "DU-145 prostate": {"tested_on": "DU-145 prostate"}, "786-0 renal": {"tested_on": "786-0 renal"}, "MALME-3M melanoma": {"tested_on": "MALME-3M melanoma"}, "HCT-15 colon": {"tested_on": "HCT-15 colon"}, "SNB-19 CNS": {"tested_on": "SNB-19 CNS"}, "HCT-116 colon": {"tested_on": "HCT-116 colon"}}, "note": "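A five-concentration, 48-hour dose response in 96-well plates underlies each endpoint, interpolated linearly between surrounding concentrations. At the GI50, growth is halved. TGI is the concentration that stops growth completely.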", "data": [{"smiles": "O=CN/N=C/c1ccc(Cl)c([N+](=O)[O-])c1", "values": [{"measurement": "TGI", "setting": "SK-OV-3 ovarian", "value": "> 100", "unit": "µM"}, {"measurement": "GI50", "setting": "HL-60(TB) leukemia", "value": 125, "unit": "nM"}, {"measurement": "TGI", "setting": "HL-60(TB) leukemia", "value": 18.4, "unit": "µM"}, {"measurement": "GI50", "setting": "MDA-MB-435", "value": 61.1, "unit": "nM"}, {"measurement": "TGI", "setting": "MDA-MB-435", "value": 18.6, "unit": "µM"}, {"measurement": "GI50", "setting": "CCRF-CEM leukemia", "value": 243, "unit": "nM"}, {"measurement": "TGI", "setting": "CCRF-CEM leukemia", "value": 72.6, "unit": "µM"}, {"measurement": "GI50", "setting": "SNB-75 CNS", "value": 787, "unit": "nM"}, {"measurement": "TGI", "setting": "SNB-75 CNS", "value": 31.5, "unit": "µM"}, {"measurement": "GI50", "setting": "SR leukemia", "value": 126, "unit": "nM"}, {"measurement": "TGI", "setting": "SR leukemia", "value": 22.6, "unit": "µM"}, {"measurement": "GI50", "setting": "HOP-62 NSCLC", "value": 1470, "unit": "nM"}, {"measurement": "TGI", "setting": "HOP-62 NSCLC", "value": 49.7, "unit": "µM"}, {"measurement": "GI50", "setting": "NCI-H460 lung", "value": 42.7, "unit": "nM"}, {"measurement": "TGI", "setting": "NCI-H460 lung", "value": 14.8, "unit": "µM"}, {"measurement": "GI50", "setting": "MCF7 breast", "value": 351, "unit": "nM"}, {"measurement": "TGI", "setting": "MCF7 breast", "value": 58.6, "unit": "µM"}, {"measurement": "GI50", "setting": "SK-MEL-5 melanoma", "value": 402, "unit": "nM"}, {"measurement": "TGI", "setting": "SK-MEL-5 melanoma", "value": 3.7, "unit": "µM"}, {"measurement": "GI50", "setting": "COLO 205 colon", "value": 110, "unit": "nM"}, {"measurement": "TGI", "setting": "COLO 205 colon", "value": 15.4, "unit": "µM"}, {"measurement": "GI50", "setting": "OVCAR-5 ovarian", "value": 189, "unit": "nM"}, {"measurement": "TGI", "setting": "OVCAR-5 ovarian", "value": "> 100", "unit": "µM"}, {"measurement": "GI50", "setting": "HCC-2998 colon", "value": 370, "unit": "nM"}, {"measurement": "TGI", "setting": "HCC-2998 colon", "value": 19.6, "unit": "µM"}, {"measurement": "GI50", "setting": "UO-31 renal", "value": 54.1, "unit": "µM"}, {"measurement": "TGI", "setting": "UO-31 renal", "value": "> 100", "unit": "µM"}, {"measurement": "GI50", "setting": "UACC-257 melanoma", "value": 618, "unit": "nM"}, {"measurement": "TGI", "setting": "UACC-257 melanoma", "value": 27.4, "unit": "µM"}, {"measurement": "GI50", "setting": "SW-620 colon", "value": 59.6, "unit": "nM"}, {"measurement": "TGI", "setting": "SW-620 colon", "value": "> 100", "unit": "µM"}, {"measurement": "GI50", "setting": "OVCAR-4 ovarian", "value": 684, "unit": "nM"}, {"measurement": "TGI", "setting": "OVCAR-4 ovarian", "value": 60.6, "unit": "µM"}, {"measurement": "GI50", "setting": "KM12 colon", "value": 228, "unit": "nM"}, {"measurement": "TGI", "setting": "KM12 colon", "value": 15.1, "unit": "µM"}, {"measurement": "GI50", "setting": "NCI/ADR-RES ovarian", "value": "> 100", "unit": "µM"}, {"measurement": "TGI", "setting": "NCI/ADR-RES ovarian", "value": "> 100", "unit": "µM"}, {"measurement": "GI50", "setting": "RPMI-8226 leukemia", "value": 439, "unit": "nM"}, {"measurement": "TGI", "setting": "RPMI-8226 leukemia", "value": 17.4, "unit": "µM"}, {"measurement": "GI50", "setting": "TK-10 renal", "value": 2400, "unit": "nM"}, {"measurement": "TGI", "setting": "TK-10 renal", "value": 71.3, "unit": "µM"}, {"measurement": "GI50", "setting": "K-562 leukemia", "value": 197, "unit": "nM"}, {"measurement": "TGI", "setting": "K-562 leukemia", "value": "> 100", "unit": "µM"}, {"measurement": "GI50", "setting": "LOX IMVI melanoma", "value": 111, "unit": "nM"}, {"measurement": "TGI", "setting": "LOX IMVI melanoma", "value": 13.7, "unit": "µM"}, {"measurement": "GI50", "setting": "DU-145 prostate", "value": 401, "unit": "nM"}, {"measurement": "TGI", "setting": "DU-145 prostate", "value": "> 100", "unit": "µM"}, {"measurement": "GI50", "setting": "786-0 renal", "value": 544, "unit": "nM"}, {"measurement": "TGI", "setting": "786-0 renal", "value": "> 100", "unit": "µM"}, {"measurement": "GI50", "setting": "MALME-3M melanoma", "value": 3.19, "unit": "µM"}, {"measurement": "TGI", "setting": "MALME-3M melanoma", "value": 33, "unit": "µM"}, {"measurement": "GI50", "setting": "HCT-15 colon", "value": 4.14, "unit": "µM"}, {"measurement": "TGI", "setting": "HCT-15 colon", "value": "> 100", "unit": "µM"}, {"measurement": "GI50", "setting": "SNB-19 CNS", "value": 518, "unit": "nM"}, {"measurement": "TGI", "setting": "SNB-19 CNS", "value": 46.6, "unit": "µM"}, {"measurement": "GI50", "setting": "HCT-116 colon", "value": 53.6, "unit": "nM"}, {"measurement": "TGI", "setting": "HCT-116 colon", "value": "> 100", "unit": "µM"}]}]}
